Measurements as given in patent publication US12370165B2, “Hunger suppression” (TDeltaS Limited, priority 2017, dated 2025).
Values belong to the compound of their own block, whether it stands above or below them.

How the values were obtained:
appetite = conditions: rats; cited from earlier work
[1] = General findings on esters: circulating (R)-3-hydroxybutyrate, gut uptake; assay type: in vivo
plasma ghrelin = experiment: General finding on esters: plasma ghrelin levels; conditions: in vivo
plasma glucose = experiment: Plasma glucose after study drink (commercial analyzer); assay type: in vivo, human
Protocol: (§1) A randomised, single-blinded, cross-over study examined the effects of isocaloric ketone ester (KE) and dextrose drinks hunger in healthy, normal-weight participants (n=15) (FIG. 1A). An external Research Ethics Committee (14/LO/0288) approved the study, which was conducted at the University of Oxford in accordance with the Declaration of Helsinki. Participants were healthy, aged 21-42 and with no history of major illness (Anthropometric characteristics in Table 1). Participants provided written informed consent prior to inclusion. Drink order was randomised prior to commencement. Participants refrained from alcohol and caffeine for 24 h prior to each visit and consumed an identical evening meal, at the same time before each visit. Testing started at 0800 h following an overnight (>8 h) fast, with a minimum of 72 h between visits. Venous blood samples (2 ml) were obtained using a 22G catheter inserted into an antecubital vein. […] Blood pHB was measured using a handheld monitor and reagent strips (Precision Xtra, Abbott Diabetes Care, UK). Blood samples were stored on ice, centrifuged and duplicate plasma aliquots stored at −80° C. and analysed within 6 weeks. Plasma glucose was assayed using a commercial analyzer (ABX Pentra, France), whereas insulin, total ghrelin, GLP-1 and PYY were measured using commercially available ELISA assays (Mercodia, Sweden and Merck Millipore, Germany).

insulin = experiment: Plasma insulin after study drink (ELISA); assay type: in vivo, human
Protocol: as §1

total ghrelin = experiment: Plasma total ghrelin after study drink (ELISA); assay type: in vivo, human
Protocol: A randomised, single-blinded, cross-over study examined the effects of isocaloric ketone ester (KE) and dextrose drinks hunger in healthy, normal-weight participants (n=15) (FIG. 1A). An external Research Ethics Committee (14/LO/0288) approved the study, which was conducted at the University of Oxford in accordance with the Declaration of Helsinki. Participants were healthy, aged 21-42 and with no history of major illness (Anthropometric characteristics in Table 1). Participants provided written informed consent prior to inclusion. Drink order was randomised prior to commencement. Participants refrained from alcohol and caffeine for 24 h prior to each visit and consumed an identical evening meal, at the same time before each visit. Testing started at 0800 h following an overnight (>8 h) fast, with a minimum of 72 h between visits. Venous blood samples (2 ml) were obtained using a 22G catheter inserted into an antecubital vein. Fasting blood samples were collected prior to all interventions and then at regular intervals for 4 h following the study drink. At identical time points, participants completed a validated three-measure visual-analogue-scale (VAS) to assess ‘hunger,’ ‘desire to eat and’ fullness' (Stubbs et al., “The use of visual analogue scales to assess motivation to eat in human subjects: a review of their reliability and validity with an evaluation of new hand-held computerized systems for temporal tracking of hunger ratings”, Br J Nutr, 2000, 84(4):405-15). Each drink contained 1.9 kCal/kg of pHB (as ketone ester) or dextrose. Drinks were diluted to 500 ml with a commercially available citrus-flavoured drink containing 65 kCal (5 g of carbohydrate) (Glaceau, UK). The dextrose drink was taste-matched using a bitterness additive (Symrise, Holzminden, Germany). Blood pHB was measured using a handheld monitor and reagent strips (Precision Xtra, Abbott Diabetes Care, UK). Blood samples were stored on ice, centrifuged and duplicate plasma aliquots stored at −80° C. and analysed within 6 weeks. Plasma glucose was assayed using a commercial analyzer (ABX Pentra, France), whereas insulin, total ghrelin, GLP-1 and PYY were measured using commercially available ELISA assays (Mercodia, Sweden and Merck Millipore, Germany).

PYY = experiment: Plasma PYY after study drink (ELISA); assay type: in vivo, human; conditions: after 30 min
Protocol: as §1

GLP-1 = experiment: Plasma GLP-1 after study drink (ELISA); assay type: in vivo, human; conditions: after 30 min
Protocol: as §1

hunger = experiment: Visual-analogue-scale (VAS) for hunger, desire to eat and fullness after study drink; assay type: in vivo, human
Protocol: A randomised, single-blinded, cross-over study examined the effects of isocaloric ketone ester (KE) and dextrose drinks hunger in healthy, normal-weight participants (n=15) (FIG. 1A). An external Research Ethics Committee (14/LO/0288) approved the study, which was conducted at the University of Oxford in accordance with the Declaration of Helsinki. Participants were healthy, aged 21-42 and with no history of major illness (Anthropometric characteristics in Table 1). Participants provided written informed consent prior to inclusion. Drink order was randomised prior to commencement. Participants refrained from alcohol and caffeine for 24 h prior to each visit and consumed an identical evening meal, at the same time before each visit. Testing started at 0800 h following an overnight (>8 h) fast, with a minimum of 72 h between visits. Venous blood samples (2 ml) were obtained using a 22G catheter inserted into an antecubital vein. Fasting blood samples were collected prior to all interventions and then at regular intervals for 4 h following the study drink. At identical time points, participants completed a validated three-measure visual-analogue-scale (VAS) to assess ‘hunger,’ ‘desire to eat and’ fullness' (Stubbs et al., “The use of visual analogue scales to assess motivation to eat in human subjects: a review of their reliability and validity with an evaluation of new hand-held computerized systems for temporal tracking of hunger ratings”, Br J Nutr, 2000, 84(4):405-15). Each drink contained 1.9 kCal/kg of pHB (as ketone ester) or dextrose. Drinks were diluted to 500 ml with a commercially available citrus-flavoured drink containing 65 kCal ([…] of carbohydrate) (Glaceau, UK). The dextrose drink was taste-matched using a bitterness additive (Symrise, Holzminden, Germany). Prism6™ software was used for statistical analysis. VAS scores were measured as a distance (mm), and normalised by taking the baseline distance for each visit as ‘0’. Values are means±SEM with significance at p<0.05. […] Correlations were calculated using a two-tailed Pearson's test with a 95% confidence interval.

Compound: CC(O)CCOC(=O)CC(C)O (centres unmarked) [3-hydroxybutyl 3-hydroxybutyrate]
appetite (appetite): suppress appetite

circulating levels of (R)-3-hydroxybutyrate in the blood ([1]; in vivo): high circulating levels | uptake in the gut ([1]; in vivo): surprisingly high level of uptake
Compound: C[C@@H](O)CCOC(=O)C[C@@H](C)O [(R)-3-hydroxybutyrate (R)-1,3-butanediol monoester]
plasma ghrelin levels (plasma ghrelin): reduce plasma ghrelin levels

Compound: C[C@@H](O)CCOC(=O)C[C@@H](C)O [KE]
Plasma glucose levels (plasma glucose; 30 min after drink, mean±SEM): 5.1 ± 0.2 mM | plasma glucose, difference between KE and dextrose drinks (plasma glucose; after 90 min): no significant differences | Plasma insulin levels (insulin; 30 min after drink, mean±SEM): 13±2 mU/L | plasma insulin, difference between KE and dextrose drinks (insulin; after 90 min): no significant differences | plasma ghrelin (total ghrelin; 1 h following drink): 320 pg/mL | Total ghrelin AUC lower with KE vs. dextrose (total ghrelin; 4 h after drink): 17% | Total ghrelin AUC (total ghrelin; 4 h after drink, mean±SEM): 86 ± 6 ng·min/mL | plasma ghrelin lower than after dextrose (total ghrelin; between 2-4 h post-drink): > 100 pg/mL | plasma PYY levels (PYY): 57 pg/mL | plasma GLP-1 levels (GLP-1): 5 pg/mL | Perceived 'Fullness' (hunger; KE vs dextrose drinks): the same | 'desire to eat' lowered compared to dextrose drinks (hunger; for 1.5 to 4 h after drink): −50% | perception of 'hunger' lowered compared to dextrose drinks (hunger; for 1.5 to 4 h after drink): −50%

uptake in the gut ([1]; in vivo): surprisingly high level of uptake | circulating levels of (R)-3-hydroxybutyrate in the blood ([1]; upon consumption of a drink): high circulating levels
Compound: (R)-3-hydroxybutyrate-glycerol partial ester
plasma ghrelin levels (plasma ghrelin): reduce plasma ghrelin levels
